Data published in patent US4950602A, “Inhibition of lactate production by pyruvate adducts” (Cornell Research Foundation, Inc., priority 1987, dated 1990).
Entries after “also recorded” stand apart in the source; their conditions may differ.

Columns and labels:
[1] = target: T1, beef heart lactate dehydrogenase (Bos taurus, UniProt Q5E9B1); assay: Inhibition of beef heart lactate dehydrogenase (NADH absorbance at 340 nm); assay type: biochemical, bovine; conditions: for Relative Activity (%) Beef Heart: 0.24 mM pyruvate, 0.1 mM NADH, pH 7.2, 25° C.
T1 construct: purchased Worthington Biochemical Corporation (Freehold, N.J.); host or cells: beef heart
Description: (§1) Enzymes and enzyme assays. Rabbit muscle glyceraldehyde-3-phosphate dehydrogenase (80 U/mg: ammonium sulfate suspension), rabbit muscle glycerol-3-phosphate dehydrogenase (40 U/mg; ammonium sulfate suspension),beef liver glutamate dehydrogenase (120 U/mg: in 50% glycerol), mitochondrial pig heart malate dehydrogenase (1100 U/mg; in 50% glycerol) and yeast hexokinase (140 U/mg; ammonium sulfate suspension) were purchased from Boehringer Mannheim Corp. (Indianapolis). Beef heart lactate dehydrogenase (280 U/mg) was purchased from Worthington Biochemical Corporation (Freehold, N.J.). Porcine heart L-alanine aminotransferase (130 U/mg), rabbit muscle phosphofructokinase (140 U/mg; ammonium sulfate suspension), bovine heart α-ketoglutarate (8 U/mg) and pyruvate (5 U/mg) dehydrogenase complexes, sodium pyruvate, L-methionine-SR-sulfoximine, DL-vinylglycine, NAD^+, NADH and NAD^+ analogues (3-acetylpyridine, thionicotinamide, and 3-pyridinealdehyde adenine dinucleotides) were purchased from Sigma Chemical Company (St. Louis, Mo.).
(§2) Each of the enzymes was assayed by procedures in which change of absorbance at 340 nm due to NADH was followed essentially as described by Bergmeyer (1974, Methods of Enzymatic Analysis, 2nd Eng. Ed., Verlag Chemie Weinheim Academic Press, N.Y.) with the following exceptions. Phosphofructokinase was assayed according to the method of Lai et al (1984, J. Neurochem., 42:438-446). NAD^+ -linked isocitrate dehydrogenase was assayed as described by Lai and Clark (1976, Biochem. J., 154:423-432). Pyruvate and α-ketoglutarate dehydrogenase complexes were respectively assayed according to the methods of Lai and Sheu (1985, J. Neurochem., 45:1861-1868) and Lai and Cooper (1986) (J. Neurochem, 47:1376-1386).
The reaction mixture (1 ml) contained 0.24 mM sodium pyruvate, 0.1 mM
NADH, 100 mM potassium phosphate buffer (pH 7.2) and either purified
bovine heart lactate dehydrogenase (0.01 U) or rat brain homogenate
containing ~0.02 U of lactate dehydrogenase activity; 25° C.
Since APADpyruvate adduct and RAP have a tendency to revert to pyruvate
they were added to the reaction mixture just prior to addition of enzyme.
Because the kinetics obtained with tightbinding inhibitors depends on the
order of addition of substrates and inhibitors the enzyme was always adde
last. Each value is the average of at least 3 determinations. Each of the […]

[2] = target: T2, α-ketoglutarate dehydrogenase (Rattus norvegicus, UniProt Q5XI78+Q6P6R2); assay: Rat brain α-ketoglutarate dehydrogenase with RAP; assay type: biochemical; conditions: 20 μM RAP
T2 construct: following enzymes in rat brain subcellular fractions: α-ketoglutarate; from tissue; host or cells: rat brain subcellular fractions
Experimental: as §2

[3] = target: T3, isocitrate dehydrogenase (Rattus norvegicus, UniProt Q99NA5); assay: Rat brain isocitrate dehydrogenase with RAP; assay type: biochemical; conditions: 20 μM RAP
T3 construct: following enzymes in rat brain subcellular fractions: α-ketoglutarate, isocitrate; from tissue; host or cells: rat brain subcellular fractions
Experimental: as §2

[4] = target: T4, cytosolic malate dehydrogenase (Rattus norvegicus, UniProt O88989); assay: Rat brain cytosolic (soluble) malate dehydrogenase with RAP; assay type: biochemical; conditions: 20 μM RAP
T4 construct: following enzymes in rat brain subcellular fractions: α-ketoglutarate, isocitrate and cytosolic malate dehydrogenases; from tissue; host or cells: rat brain subcellular fractions
Experimental: as §2

[5] = target: T5, bovine heart pyruvate dehydrogenase complex (Bos taurus, UniProt A7MB35+F1N206+P11966); assay: Purified bovine heart pyruvate dehydrogenase complex with RAP; assay type: biochemical; conditions: 20 μM RAP
T5 construct: overall NADH-forming activity assayed at 340 nm
Description: as §1
(§3) Each of the enzymes was assayed by procedures in which change of absorbance at 340 nm due to NADH was followed essentially as described by Bergmeyer (1974, Methods of Enzymatic Analysis, 2nd Eng. Ed., Verlag Chemie Weinheim Academic Press, N.Y.) with the following exceptions. […]

[6] = target: T6, bovine heart α-ketoglutarate dehydrogenase complex (Bos taurus, UniProt F1N206); assay: Purified bovine heart α-ketoglutarate dehydrogenase complex with RAP; assay type: biochemical; conditions: 20 μM RAP
T6 construct: purchased Sigma Chemical Company (St. Louis, Mo.); host or cells: bovine heart
Description: as §1, §3

[7] = target: T7, beef liver glutamate dehydrogenase (Bos taurus, UniProt P00366); assay: Commercial glutamate dehydrogenase with RAP; assay type: biochemical; conditions: 20 μM RAP
T7 construct: purchased Boehringer Mannheim Corp. (Indianapolis); host or cells: beef liver
Description: as §1, §3

[8] = target: T8, glutamate dehydrogenase (Rattus norvegicus, UniProt P10860); assay: Rat brain glutamate dehydrogenase with RAP; assay type: biochemical; conditions: 20 μM RAP
T8 construct: Commercial and rat brain glutamate dehydrogenases; from tissue; host or cells: rat brain
Experimental: as §2

[9] = target: T9, mitochondrial malate dehydrogenase (Rattus norvegicus, UniProt P04636); assay: Rat brain mitochondrial malate dehydrogenase with RAP; assay type: biochemical; conditions: 20 μM RAP
T9 construct: Commercial and rat brain glutamate dehydrogenases and mitochondrial malate dehydrogenases were only slightly; from tissue; host or cells: rat brain
Experimental: as §2

[10] = target: T10, pyruvate dehydrogenase (Rattus norvegicus, UniProt P26284+P49432+Q6P6R2); assay: Rat brain pyruvate dehydrogenase with RAP; assay type: biochemical; conditions: 20 μM RAP
T10 construct: from tissue; host or cells: rat brain
Experimental: as §2

[11] = test system: lactate production from D-glucose in rat brain postnuclear supernatant fraction; assay: Lactate production from D-glucose in rat brain postnuclear supernatants; assay type: biochemical
Experimental: (§4) FIG. 2 is a graphic presentation of inhibition of lactate production from D-glucose by rat brain postnuclear supernatant fraction and by synaptosoms incubated with RAP. Lactate production was determined for a 20-min incubation at 37° C. Values (expressed as % of the control rate) are mean±SD of 3-6 determinations. The control value was 8.1±0.9 nmol of lactate produced/min/mg protein, *P<0.05, **P<0.03 and ***P<0.005vs. control values.
(§5) Postnuclear supernatant fraction (containing the glycolytic enzymes) was prepared from rat brain according to the method of Lai et al (1984, supra). Rat brain synaptosomes were prepared according to the method of Lai et al (1980, Biochem. Pharmacol., 29:141-146). Lactate generated by these preparations in the presence of D-glucose was measured with lactate dehydrogenase as described by Lai et al (1984, supra), except that the concentrations of sodium phosphate buffer and nicotinamide used in the medium were respectively 5 and 20 mM. (In some cases where there was a carry over of appreciable RAP to the assay mix, ten times the recommended amount of lactate dehydrogenase was used and the effectiveness of the enzyme in converting lactate to pyruvate was checked by addition of lactate standards to the cuvette after the initial reaction was over).

[12] = test system: lactate production from D-glucose in synaptosomes; assay: Lactate production from D-glucose in rat brain synaptosomes; assay type: cell-based
Experimental: as §4, §5

[13] = test system: lactate dehydrogenase; assay: Determination of inactive E.RAP enzyme complex; assay type: biochemical, rat; conditions: 2 μM initial concentration
[14] = target: rat brain lactate dehydrogenase; assay: Inhibition of rat brain lactate dehydrogenase (rat brain homogenate); assay type: biochemical; conditions: in the presence of either 0.2 or 2 mM pyruvate and 0.1 mM NADH

T1 sequence (Q5E9B1 whole entry): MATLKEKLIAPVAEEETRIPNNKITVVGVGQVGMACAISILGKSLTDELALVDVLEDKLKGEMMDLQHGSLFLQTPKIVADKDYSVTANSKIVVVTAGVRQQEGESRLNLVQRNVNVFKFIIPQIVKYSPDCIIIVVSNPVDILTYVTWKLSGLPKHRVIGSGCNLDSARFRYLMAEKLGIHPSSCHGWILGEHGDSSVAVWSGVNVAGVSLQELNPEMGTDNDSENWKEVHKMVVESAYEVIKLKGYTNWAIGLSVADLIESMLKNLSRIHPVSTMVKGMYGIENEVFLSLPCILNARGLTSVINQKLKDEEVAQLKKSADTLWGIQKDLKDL
T4 sequence (O88989 whole entry): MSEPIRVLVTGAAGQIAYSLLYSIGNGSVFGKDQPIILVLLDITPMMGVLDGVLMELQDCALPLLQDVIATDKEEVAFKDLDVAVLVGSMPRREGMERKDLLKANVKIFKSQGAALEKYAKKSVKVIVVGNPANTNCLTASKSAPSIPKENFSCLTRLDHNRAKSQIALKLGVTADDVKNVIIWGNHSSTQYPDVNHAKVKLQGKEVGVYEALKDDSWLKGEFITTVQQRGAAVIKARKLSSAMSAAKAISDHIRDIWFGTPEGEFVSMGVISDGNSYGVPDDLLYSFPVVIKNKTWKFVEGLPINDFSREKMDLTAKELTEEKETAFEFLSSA
T2 sequence (Q5XI78 41-1023): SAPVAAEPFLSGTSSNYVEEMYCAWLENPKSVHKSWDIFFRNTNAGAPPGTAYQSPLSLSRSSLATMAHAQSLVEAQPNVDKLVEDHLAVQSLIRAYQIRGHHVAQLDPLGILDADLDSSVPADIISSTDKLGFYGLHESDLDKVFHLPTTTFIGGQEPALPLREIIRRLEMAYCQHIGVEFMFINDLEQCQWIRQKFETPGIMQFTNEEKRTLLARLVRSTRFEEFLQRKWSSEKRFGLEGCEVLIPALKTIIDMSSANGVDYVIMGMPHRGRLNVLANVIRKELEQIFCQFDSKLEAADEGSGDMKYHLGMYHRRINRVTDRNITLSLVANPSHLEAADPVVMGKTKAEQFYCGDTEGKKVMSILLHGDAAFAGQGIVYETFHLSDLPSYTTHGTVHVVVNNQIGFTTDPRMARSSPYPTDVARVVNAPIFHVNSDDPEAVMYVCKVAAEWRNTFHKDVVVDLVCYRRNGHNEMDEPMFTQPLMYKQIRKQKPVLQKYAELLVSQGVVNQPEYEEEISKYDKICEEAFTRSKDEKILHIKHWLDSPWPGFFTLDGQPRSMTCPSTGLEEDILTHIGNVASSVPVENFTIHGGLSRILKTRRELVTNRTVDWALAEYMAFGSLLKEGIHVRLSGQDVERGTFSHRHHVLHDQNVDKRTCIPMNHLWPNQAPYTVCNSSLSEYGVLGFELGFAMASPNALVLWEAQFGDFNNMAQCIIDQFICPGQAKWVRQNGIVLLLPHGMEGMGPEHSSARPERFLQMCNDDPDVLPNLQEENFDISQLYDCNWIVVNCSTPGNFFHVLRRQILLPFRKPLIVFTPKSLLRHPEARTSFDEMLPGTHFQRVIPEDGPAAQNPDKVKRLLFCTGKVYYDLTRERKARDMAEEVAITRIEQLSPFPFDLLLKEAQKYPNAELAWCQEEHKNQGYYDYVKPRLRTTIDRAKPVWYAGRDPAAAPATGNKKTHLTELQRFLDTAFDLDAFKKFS
T2 sequence (Q01205 69-454 partner): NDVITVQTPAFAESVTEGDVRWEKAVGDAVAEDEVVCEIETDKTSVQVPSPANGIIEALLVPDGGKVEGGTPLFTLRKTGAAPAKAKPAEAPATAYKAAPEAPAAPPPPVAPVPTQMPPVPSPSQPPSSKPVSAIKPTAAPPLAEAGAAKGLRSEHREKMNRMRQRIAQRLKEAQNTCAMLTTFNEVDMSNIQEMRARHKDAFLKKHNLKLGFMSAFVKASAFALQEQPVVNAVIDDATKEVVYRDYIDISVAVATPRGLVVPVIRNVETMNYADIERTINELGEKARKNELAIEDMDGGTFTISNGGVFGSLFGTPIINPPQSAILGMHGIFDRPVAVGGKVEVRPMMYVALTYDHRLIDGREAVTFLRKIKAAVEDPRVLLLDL
T2 sequence (Q6P6R2 36-509): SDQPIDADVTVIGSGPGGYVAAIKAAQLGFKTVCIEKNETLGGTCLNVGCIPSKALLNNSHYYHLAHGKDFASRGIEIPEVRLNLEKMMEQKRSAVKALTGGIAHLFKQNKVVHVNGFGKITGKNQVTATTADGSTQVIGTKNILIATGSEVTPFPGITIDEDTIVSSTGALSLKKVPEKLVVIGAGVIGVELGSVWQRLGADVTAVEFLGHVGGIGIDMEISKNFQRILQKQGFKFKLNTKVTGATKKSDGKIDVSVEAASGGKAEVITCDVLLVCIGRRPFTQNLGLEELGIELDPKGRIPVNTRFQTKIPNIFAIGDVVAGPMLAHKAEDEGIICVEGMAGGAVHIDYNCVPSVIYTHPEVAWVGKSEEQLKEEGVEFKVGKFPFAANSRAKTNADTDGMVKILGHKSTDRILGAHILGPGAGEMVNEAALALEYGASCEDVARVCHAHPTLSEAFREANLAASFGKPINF
T8 sequence (P10860 54-558): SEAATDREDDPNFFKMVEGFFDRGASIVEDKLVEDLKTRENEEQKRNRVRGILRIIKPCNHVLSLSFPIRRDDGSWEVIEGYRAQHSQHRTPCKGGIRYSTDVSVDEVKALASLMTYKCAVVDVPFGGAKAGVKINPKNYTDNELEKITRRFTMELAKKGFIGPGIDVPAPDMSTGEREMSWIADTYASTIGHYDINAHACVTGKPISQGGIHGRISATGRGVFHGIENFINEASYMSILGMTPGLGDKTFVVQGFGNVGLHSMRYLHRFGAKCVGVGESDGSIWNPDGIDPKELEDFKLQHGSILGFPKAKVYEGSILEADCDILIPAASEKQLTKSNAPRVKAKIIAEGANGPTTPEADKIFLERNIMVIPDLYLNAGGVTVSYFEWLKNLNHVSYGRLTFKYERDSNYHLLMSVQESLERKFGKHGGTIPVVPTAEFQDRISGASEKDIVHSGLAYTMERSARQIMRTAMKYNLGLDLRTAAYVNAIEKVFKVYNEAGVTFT
T9 sequence (P04636 25-338): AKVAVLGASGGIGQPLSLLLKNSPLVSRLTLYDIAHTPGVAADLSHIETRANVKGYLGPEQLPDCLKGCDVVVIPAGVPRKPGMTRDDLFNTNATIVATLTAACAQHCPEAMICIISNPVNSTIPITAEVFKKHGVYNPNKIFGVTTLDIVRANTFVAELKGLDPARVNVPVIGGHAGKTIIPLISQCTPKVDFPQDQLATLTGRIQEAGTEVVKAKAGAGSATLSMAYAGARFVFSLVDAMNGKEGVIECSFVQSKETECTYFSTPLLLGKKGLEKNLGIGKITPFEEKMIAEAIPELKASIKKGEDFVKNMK
T3 sequence (Q99NA5 28-366): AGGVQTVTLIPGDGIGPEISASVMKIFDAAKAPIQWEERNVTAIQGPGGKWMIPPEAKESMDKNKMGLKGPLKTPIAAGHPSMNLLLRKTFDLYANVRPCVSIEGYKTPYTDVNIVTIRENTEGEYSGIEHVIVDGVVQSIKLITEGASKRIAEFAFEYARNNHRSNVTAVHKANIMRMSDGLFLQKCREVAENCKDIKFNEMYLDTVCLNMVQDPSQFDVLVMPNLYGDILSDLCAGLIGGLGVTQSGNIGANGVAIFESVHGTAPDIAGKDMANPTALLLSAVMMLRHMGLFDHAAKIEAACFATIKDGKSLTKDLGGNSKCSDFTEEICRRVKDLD
T3 sequence (Q68FX0 35-385 partner): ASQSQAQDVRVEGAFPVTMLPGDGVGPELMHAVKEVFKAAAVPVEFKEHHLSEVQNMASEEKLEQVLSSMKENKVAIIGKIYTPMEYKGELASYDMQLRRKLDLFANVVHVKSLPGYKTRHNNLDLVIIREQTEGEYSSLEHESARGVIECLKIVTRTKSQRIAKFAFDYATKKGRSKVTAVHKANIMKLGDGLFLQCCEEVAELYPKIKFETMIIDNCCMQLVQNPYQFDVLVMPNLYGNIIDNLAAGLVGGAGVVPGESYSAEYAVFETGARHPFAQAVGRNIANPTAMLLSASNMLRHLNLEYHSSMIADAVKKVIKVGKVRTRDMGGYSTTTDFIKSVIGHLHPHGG
T3 sequence (P41565 40-393 partner): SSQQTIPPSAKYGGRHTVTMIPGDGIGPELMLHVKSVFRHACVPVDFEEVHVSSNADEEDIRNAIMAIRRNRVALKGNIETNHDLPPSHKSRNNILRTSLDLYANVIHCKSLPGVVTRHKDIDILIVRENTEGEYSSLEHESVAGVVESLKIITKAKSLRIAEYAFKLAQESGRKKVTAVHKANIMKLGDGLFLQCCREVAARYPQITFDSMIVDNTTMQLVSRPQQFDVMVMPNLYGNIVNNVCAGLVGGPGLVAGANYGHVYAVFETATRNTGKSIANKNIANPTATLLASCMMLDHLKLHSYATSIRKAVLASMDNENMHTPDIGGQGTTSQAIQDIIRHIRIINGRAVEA
T6 sequence (F1N206 36-509, one chain of several): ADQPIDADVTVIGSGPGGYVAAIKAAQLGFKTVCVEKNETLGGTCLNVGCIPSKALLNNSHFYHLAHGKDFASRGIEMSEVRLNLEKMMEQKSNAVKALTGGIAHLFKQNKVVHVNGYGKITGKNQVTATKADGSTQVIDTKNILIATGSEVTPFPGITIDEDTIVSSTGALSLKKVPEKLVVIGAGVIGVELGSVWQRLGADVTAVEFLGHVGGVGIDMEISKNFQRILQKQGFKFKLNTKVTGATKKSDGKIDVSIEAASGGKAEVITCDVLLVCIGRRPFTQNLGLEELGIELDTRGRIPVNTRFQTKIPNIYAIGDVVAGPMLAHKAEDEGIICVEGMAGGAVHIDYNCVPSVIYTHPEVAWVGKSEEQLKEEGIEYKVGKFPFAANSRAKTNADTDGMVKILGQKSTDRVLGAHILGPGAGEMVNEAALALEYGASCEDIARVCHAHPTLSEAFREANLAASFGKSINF

In the case of `Nc1ncnc2c1ncn2[C@@H]1O[C@H](COP(=O)(O)OP(=O)(O)OC[C@H]2O[C@@H](N3C=CC(CC(=O)C(=O)O)C(C=O)=C3)[C@H](O)[C@@H]2O)[C@@H](O)[C@H]1O` (some centres unmarked) [RAP, 3(-4-(reduced 3-pyridinealdehyde-adeninedinucleotide))-pyruvate], the Ki ([1]; Ki for the A form, A isomer at the 4 position, taken as half of the mixture, calculated from Table 1 data) is reported as 1.3 nM, the Ki ([1]; Ki, calculated from Table 1 data with Km for NADH 2.5 μM, standard equation for a competitive inhibitor) is reported as 2.6 nM and the “Relative Activity (%) Beef Heart” value ([1]; additive 42 nM) is reported as 79%. The “Relative Activity (%) Beef Heart” value ([1]; additive 84 nM) was 58%, the “Relative Activity (%) Beef Heart” value ([1]; additive 132 nM) was 40% and the “Relative Activity (%) Beef Heart” value ([1]; additive 180 nM) was 29%. For the same compound, the “potency as inhibitor of lactate dehydrogenase relative to the NAD-pyruvate adduct” value ([1]; from Table 1) was ~ 1000 fold, the “type of inhibition with respect to pyruvate” value ([1]; suggested by the 2.4 mM pyruvate finding) was “noncompetitive inhibitor with respect to pyruvate” and the “effect on rat brain α-ketoglutarate dehydrogenase” value [2] was “little or no effect; also recorded: did not inhibit”. For the same compound, the “effect on rat brain isocitrate dehydrogenase” value [3] was “little or no effect; also recorded: did not inhibit”, the “effect on rat brain cytosolic (soluble) malate dehydrogenase” value [4] was “little or no effect; also recorded: did not inhibit” and the “effect on purified bovine heart pyruvate dehydrogenase complex” value [5] was “nor did 20 μM RAP inhibit”. For the same compound, the “effect on purified bovine heart α-ketoglutarate dehydrogenase complex” value [6] was “nor did 20 μM RAP inhibit”, the inhibition at 20 µM [7] was ≤ 20% and the “effect on rat brain glutamate dehydrogenase” value [8] was “little or no effect”. The inhibition at 20 µM [8] was ≤ 20%, the “effect on rat brain mitochondrial malate dehydrogenase” value [9] was “little or no effect” and the inhibition at 20 µM [9] was ≤ 20%. The “effect on rat brain pyruvate dehydrogenase” value [10] was “little or no effect”, the “inhibition of lactate production from glucose in rat brain extracts” value [11] was “strongly inhibited” and the “concentrations at which lactate production is inhibited in a concentration-dependent manner” value ([11]; rat brain postnuclear supernatants, D-glucose) was “higher than 200 nM”. The IC50 ([11]; rat brain postnuclear supernatants, D-glucose, 20-min incubation at 37° C., true concentration lower since RAP dissociates, read-out: formal "concentration" required to inhibit lactate production by 50%) was 1000 to 9000 nM, the “inhibition of lactate production from glucose in synaptosomes compared with rat brain extracts” value [12] was “less effective” and the “inhibition of lactate production in synaptosomes” value ([12]; initial concentrations of 250-500 μM) was 15-30%. The “enzyme tied up as the inactive E.RAP complex” value [13] was “approximately 90%” and the IC50 [14] was ~100 nM.
